One assay relates to P. variotii BCRC 33174. Put plainly: Antifungal activity assay (pathogen antagonistic dosage assay, paper discs on PDA plate). The assay is classed as cell-based, Paecilomyces variotii. Particulars: 28° C. Here is the method: (§1) The fungal strains for testing the antifungal activities of Monascus strains or isolated and purified antifungal protein, MAFP1, are selected from Helminthosporium panici BCRC 35004 and Paecilomyces variotii BCRC 33174. The fungal strains were inoculated on PDA (Potato Dextrose Agar, Difico Co.) culture plate and cultured at 25° C. for 7 to 14 days. Pathogen antagonistic dosage assays were conducted to confirm the antifungal activity of the purified MAFP1 protein. Fungal blocks of pathogenic fungi (P. variotii BCRC 33174 and H. panici BCRC 35004) were place in the center of PDA plates. 6 mm paper discs with different concentrations of MAFP1 solutions (containing 0 to 0.8 μg of purified MAFP1 protein) were placed surround the fungal block of pathogenic fungus. The plates were cultured at 28° C. and the growth inhibitions of the pathogenic fungi were observed.

Another assay has as its system H. panici BCRC 35004. The description is as above. Format: cell-based, Helminthosporium panici. The following applies: 28° C. Here is the method: as §1
Setting [1] is: discs with 0 to 0.8 μg MAFP1, PDA plate.

As to “MAFP1: Antifungal protein of about 7 kDa purified from M. pilosus BCRC 38093 culture broth; mature form, SEQ ID NO: 3 (LSKYGGECSLQHNTCTYLKGGKNQVVHCGSAANQKCKSDRHHCEYDEHHKTVNCQTPV; listed as Monascus pilosus)”, the “growth inhibition of P. variotii” value with P. variotii BCRC 33174 (0.2 μg of purified MAFP1 protein on 6 mm paper disc, PDA plate) was “can significantly inhibit the growth”. In addition, the “dependence of growth inhibition of pathogenic fungus on MAFP1 concentration” value with P. variotii BCRC 33174 (setting [1]) is “the higher the MAFP1 concentration, the stronger the inhibitory activity”; in the assay on H. panici BCRC 35004 (setting [1]) it was “the higher the MAFP1 concentration, the stronger the inhibitory activity”. For the same substance, the “growth inhibition of H. panici” value with H. panici BCRC 35004 (0.4 μg of purified MAFP1 protein on 6 mm paper disc, PDA plate) is on record as “can significantly inhibit the growth”.
